What is called IC50 is the concentration needed to halve the response being measured. What is called AUC is concentration integrated over time. A high value points to more exposure. The Cmax is the peak of the concentration-time curve. One may read the clearance as the rate of elimination divided by the concentration.

For series [1], the target named is T1, Toll-like receptor 7 (Mus musculus, UniProt P58681).
T1 sequence (P58681 whole entry): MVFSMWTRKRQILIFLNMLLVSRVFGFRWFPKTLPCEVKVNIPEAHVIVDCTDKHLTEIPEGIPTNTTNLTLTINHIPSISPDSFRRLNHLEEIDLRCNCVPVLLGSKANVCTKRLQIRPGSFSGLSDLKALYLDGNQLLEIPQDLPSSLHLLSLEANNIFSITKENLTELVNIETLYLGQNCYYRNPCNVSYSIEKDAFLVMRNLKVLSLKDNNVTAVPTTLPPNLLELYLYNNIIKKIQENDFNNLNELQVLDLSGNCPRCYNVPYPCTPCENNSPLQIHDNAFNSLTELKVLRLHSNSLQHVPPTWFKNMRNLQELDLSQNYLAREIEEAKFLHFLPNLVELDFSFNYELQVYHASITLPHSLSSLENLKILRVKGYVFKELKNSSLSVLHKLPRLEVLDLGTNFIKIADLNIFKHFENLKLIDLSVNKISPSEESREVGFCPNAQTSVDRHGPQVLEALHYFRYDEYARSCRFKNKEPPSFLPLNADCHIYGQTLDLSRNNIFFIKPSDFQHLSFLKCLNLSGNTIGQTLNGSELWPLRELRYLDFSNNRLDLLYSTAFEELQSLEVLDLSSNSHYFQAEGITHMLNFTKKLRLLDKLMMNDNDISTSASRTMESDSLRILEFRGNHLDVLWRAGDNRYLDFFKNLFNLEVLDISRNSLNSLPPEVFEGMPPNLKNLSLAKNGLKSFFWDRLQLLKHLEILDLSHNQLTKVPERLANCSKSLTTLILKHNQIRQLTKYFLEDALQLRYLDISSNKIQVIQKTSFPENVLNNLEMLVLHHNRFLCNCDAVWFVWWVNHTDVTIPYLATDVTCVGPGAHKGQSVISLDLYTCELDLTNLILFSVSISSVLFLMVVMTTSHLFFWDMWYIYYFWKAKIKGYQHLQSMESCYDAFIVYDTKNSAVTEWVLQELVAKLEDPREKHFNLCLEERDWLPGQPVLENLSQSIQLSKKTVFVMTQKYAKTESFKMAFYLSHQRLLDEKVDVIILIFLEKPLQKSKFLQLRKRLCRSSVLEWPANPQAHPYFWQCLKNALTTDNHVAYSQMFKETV
Nature of the series: Antagonist activity at TLR7 in mouse splenocytes assessed as inhibition of ssRNA40-induced IL6 production. Format: cell-based, Splenocyte.

Series [2] concerns the target T2, Toll-like receptor 9 (Mus musculus, UniProt Q9EQU3).
T2 sequence (Q9EQU3 whole entry): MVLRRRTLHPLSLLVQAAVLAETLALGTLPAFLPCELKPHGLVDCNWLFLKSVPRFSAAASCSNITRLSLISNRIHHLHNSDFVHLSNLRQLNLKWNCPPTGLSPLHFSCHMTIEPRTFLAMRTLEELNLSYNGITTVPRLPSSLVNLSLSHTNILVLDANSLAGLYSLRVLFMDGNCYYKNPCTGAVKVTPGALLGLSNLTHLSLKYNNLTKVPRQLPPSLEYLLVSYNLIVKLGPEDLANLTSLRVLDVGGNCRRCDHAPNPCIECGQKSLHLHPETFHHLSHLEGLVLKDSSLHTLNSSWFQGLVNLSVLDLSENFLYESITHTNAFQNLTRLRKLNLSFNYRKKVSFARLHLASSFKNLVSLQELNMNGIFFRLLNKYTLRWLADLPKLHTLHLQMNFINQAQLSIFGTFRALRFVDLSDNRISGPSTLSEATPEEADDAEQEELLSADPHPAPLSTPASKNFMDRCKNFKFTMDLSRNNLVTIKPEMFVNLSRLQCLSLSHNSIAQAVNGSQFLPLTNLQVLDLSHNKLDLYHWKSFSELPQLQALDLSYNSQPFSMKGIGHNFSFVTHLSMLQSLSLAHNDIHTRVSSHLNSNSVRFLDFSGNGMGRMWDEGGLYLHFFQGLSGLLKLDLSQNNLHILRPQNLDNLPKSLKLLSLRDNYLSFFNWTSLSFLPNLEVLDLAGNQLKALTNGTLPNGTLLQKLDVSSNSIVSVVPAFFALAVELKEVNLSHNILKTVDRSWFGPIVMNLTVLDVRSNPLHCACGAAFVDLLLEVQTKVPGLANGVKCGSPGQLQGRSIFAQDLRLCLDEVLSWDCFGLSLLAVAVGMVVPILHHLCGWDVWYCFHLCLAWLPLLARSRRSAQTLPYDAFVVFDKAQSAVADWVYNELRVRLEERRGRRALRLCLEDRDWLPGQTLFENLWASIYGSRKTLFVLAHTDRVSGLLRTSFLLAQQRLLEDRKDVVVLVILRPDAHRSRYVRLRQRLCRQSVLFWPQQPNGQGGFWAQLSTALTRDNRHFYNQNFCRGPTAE
The series is described as follows: Antagonist activity at TLR9 in mouse splenocytes assessed as inhibition of CpG1585-induced IL6 production. The series is classed as cell-based, Splenocyte.

Series [3] has as its target T3, Toll-like receptor 9 (Homo sapiens, UniProt Q9NR96).
T3 sequence (Q9NR96 whole entry): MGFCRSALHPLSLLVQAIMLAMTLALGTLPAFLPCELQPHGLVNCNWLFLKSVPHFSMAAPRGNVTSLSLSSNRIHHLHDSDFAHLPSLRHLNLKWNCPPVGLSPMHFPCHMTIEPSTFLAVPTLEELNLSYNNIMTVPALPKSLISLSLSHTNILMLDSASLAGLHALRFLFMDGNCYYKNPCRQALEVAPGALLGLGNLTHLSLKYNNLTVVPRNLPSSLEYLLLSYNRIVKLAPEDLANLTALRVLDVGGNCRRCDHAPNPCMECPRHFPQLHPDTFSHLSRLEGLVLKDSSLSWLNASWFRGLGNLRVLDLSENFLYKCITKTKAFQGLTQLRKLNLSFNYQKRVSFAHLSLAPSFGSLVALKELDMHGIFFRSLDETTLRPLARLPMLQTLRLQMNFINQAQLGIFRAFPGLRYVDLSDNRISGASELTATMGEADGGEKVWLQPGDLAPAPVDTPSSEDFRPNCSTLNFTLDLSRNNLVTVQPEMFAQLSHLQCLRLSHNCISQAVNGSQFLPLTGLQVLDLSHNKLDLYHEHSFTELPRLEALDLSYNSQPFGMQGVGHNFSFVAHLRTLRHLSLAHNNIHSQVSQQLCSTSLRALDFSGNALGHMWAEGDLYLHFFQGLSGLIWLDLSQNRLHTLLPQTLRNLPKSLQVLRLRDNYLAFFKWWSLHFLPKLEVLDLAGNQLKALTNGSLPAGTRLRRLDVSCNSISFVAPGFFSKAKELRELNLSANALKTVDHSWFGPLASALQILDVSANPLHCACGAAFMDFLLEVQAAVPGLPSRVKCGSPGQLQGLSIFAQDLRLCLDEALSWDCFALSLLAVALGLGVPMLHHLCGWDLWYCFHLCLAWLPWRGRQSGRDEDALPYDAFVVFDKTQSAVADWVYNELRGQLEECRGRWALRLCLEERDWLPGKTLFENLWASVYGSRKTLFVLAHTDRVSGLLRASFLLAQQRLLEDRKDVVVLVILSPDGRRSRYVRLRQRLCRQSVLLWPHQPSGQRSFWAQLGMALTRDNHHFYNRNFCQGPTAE
The series is described as follows: Antagonist activity at TLR9 in human PBMC assessed as inhibition of ODN2216-induced IFNalpha production. Format: tissue-based.

The nature of series [4]: AUC in BALB/c mouse at 20 mg/kg, po. As to conditions: in vivo. Also on record: dose 20 mg/kg. Format: ADME, organism-based.
Series [5] is described as follows: Cmax in BALB/c mouse at 20 mg/kg, po. The series is classed as ADME, organism-based. Also on record: route oral, dose 20 mg/kg. The conditions noted are these: in vivo.
Series [6] in a line: Clearance in BALB/c mouse at 5 mg/kg, iv. The conditions noted are these: in vivo. The series is classed as ADME, organism-based.
The nature of series [7]: Volume of distribution at steady state in BALB/c mouse at 5 mg/kg, iv. Format: ADME, organism-based. As to conditions: in vivo, read-out: Vdss.
The nature of series [8]: Terminal half life in BALB/c mouse at 5 mg/kg, iv. Format: ADME, organism-based. The conditions noted are these: in vivo, read-out: beta t1/2 (converted).
The nature of series [9]: Oral bioavailability in BALB/c mouse at 20 mg/kg. The series is classed as ADME, organism-based. The conditions noted are these: in vivo.
The target in series [10] is T1, Toll-like receptor 7. The series is described as follows: Antagonist activity at TLR7 in mouse P4H1 cells assessed as inhibition of imiquimod-induced IL6 production. The series is classed as cell-based.
A short description of series [11]: Drug uptake in 129Sv mouse at 30 mg/kg, ip measured after 2 hrs. The series is classed as ADME, organism-based. As to conditions: in vivo, read-out: Drug uptake.
Series [12] can be described thus: Drug uptake in 129Sv mouse at 5 mg/kg, po measured after 2 hrs. Format: ADME, organism-based. The conditions noted are these: in vivo, read-out: Drug uptake.

Take `Cn1ncc2c(-c3ccc(OCC45CCC(N)(CC4)CC5)c(F)c3)nc(N)nc21`: the results for the IC50 in series [1], in series [2] and in [3] were 300 nM, 800 nM and 3700 nM, respectively.
On to `Cc1cc(-c2ccnc3[nH]ncc23)cnc1OCC12CCC(O)(CC1)CC2`, for which the IC50 was 55 nM in series [1], > 10000 nM in series [2] and > 5000 nM in [3]. Moreover, the AUC in series [4] was 36.3 µM·h. This compound also came in with a Cmax in series [5] of 4370 nM. In [6], this compound had a clearance of 11 mL/min/kg. For the same compound, the Vd in [7] is 3.1 L/kg. In addition, the half-life in series [8] is 4.7 h. The bioavailability in series [9] was found to be 43%.
`CN1CCN(CCCOc2ccc(-c3nn(C)c4nc(N)ncc34)cc2F)CC1`: the IC50 in series [10] is 170 nM; in series [1], 2000 nM; in series [2] it was 2000 nM.
On to `Cn1nc(-c2ccc(OCC34CCC(O)(CC3)CC4)c(F)c2)c2cnc(N)nc21`, for which the IC50 in series [1] was 1200 nM; in series [2] it was 2800 nM; in series [3], 5300 nM.
Turning to `Cn1nc(-c2ccc(OCC34CCC(N)(CC3)CC4)c(F)c2)c2cnc(N)nc21`, the IC50 in [1] came out at 38 nM; in series [2], 840 nM; in series [3], 2700 nM. In series [4], this compound displayed an AUC of 3.05 µM·h. The Cmax in series [5] came to 506 nM. The clearance in [6] is 98 mL/min/kg. Besides, the Vd in series [7] was determined as 15 L/kg. In series [8], the half-life was 4.1 h. The bioavailability in series [9] worked out at 36%.
As for `Cn1nc(-c2ccc(OCCCC3CCNCC3)c(F)c2)c2cnc(N)nc21`, the IC50 was 97 nM in series [1], 1300 nM in [2] and 2300 nM in [3]. Also, the clearance in series [6] was found to be 165 mL/min/kg. Also, the Vd in series [7] is 29 L/kg. For the same compound, in series [8], the half-life is 5.9 h. The bioavailability in series [9] is 0%. For the same compound, the concentration at 2 h in series [11] came out at 1500 nM.
In the case of `Cn1nc(-c2ccc(OCC3CC4(CNC4)C3)c(F)c2)c2cnc(N)nc21`, the IC50 in series [2] came out at 1200 nM; in series [3], 6500 nM.
Consider `Cc1cc(-c2cnc(OCC34CCC(N)(CC3)CC4)c(C)c2)c2cnn(C)c2n1`, for which the AUC in series [4] is 28.9 µM·h. Further, the concentration in series [5] peaked (Cmax) at 1400 nM. The same compound had a clearance in series [6] of 44 mL/min/kg. In addition, the Vd in series [7] was determined as 13.8 L/kg. Moreover, in series [8], the half-life is 4.9 h. Further, the bioavailability in series [9] was 150%.
In the case of `Cn1nc(-c2ccc(OCC3CCNCC3)c(F)c2)c2cnc(N)nc21`, the IC50 came to 220 nM in [1], 2000 nM in [2] and 3400 nM in series [3].
As to `Cl.Cn1nc(-c2ccc(OCC34CCC(N)(CC3)CC4)c(F)c2)c2cnc(N)nc21`, the concentration at 2 h in series [12] is 300 nM.
On to `Cn1nc(-c2ccc(OC[C@H]3CC[C@@H](N)CC3)c(F)c2)c2cnc(N)nc21`, for which the half-inhibitory concentration (IC50) was 150 nM in series [1], 1200 nM in series [2] and 2200 nM in [3].
The like results for `Cn1nc(-c2ccc(OC[C@H]3CC[C@H](N)CC3)c(F)c2)c2cnc(N)nc21` were, in that order, 110 nM, 1900 nM and 1400 nM.
With `Cc1cc(-c2nn(C)c3nc(N)ncc23)cnc1OCC12CCC(N)(CC1)CC2`, in [3], the IC50 stood at 3300 nM. Further, in series [4], the AUC stood at 2.98 µM·h. In addition, the Cmax in series [5] was found to be 354 nM. Further, in series [6], the clearance was found to be 96 mL/min/kg. Also, the Vd in series [7] turned out to be 15 L/kg. Further, in series [8], the half-life is 4.1 h. Besides, the bioavailability in series [9] came to 34%.
Take `Cc1cc(-c2ccc(OCC34CCC(N)(CC3)CC4)c(F)c2)c2cnc(N)nn12`: the IC50 in series [1] turned out to be 93 nM; in series [2], 460 nM; in series [3], 3400 nM.
Take `Cn1nc(-c2ccc(OCC3C[C@H]4CC[C@@H](C3)N4)c(F)c2)c2cnc(N)nc21` (stereo partly specified): the half-inhibitory concentration (IC50) in [1] amounted to 120 nM; in series [2], 1200 nM; in [3], 1200 nM.

(Values after ChEMBL document CHEMBL4725311, “Discovery of potent, orally bioavailable in vivo efficacious antagonists of the TLR7/8 pathway” (Bioorg Med Chem Lett, 2020).)
